Measured values reported in patent publication US6562602B2, “Fermentation and purification of mycolactones” (priority 2000, dated 2003).

Assay: stability of individual enriched mycolactone isomers in presence and absence of laboratory light, followed by HPLC
Format: physicochemical
Conditions: ambient light versus no light; data not shown
Experimental: To monitor stability of the individual enriched isomers, HPLC data was collected on samples stored in the presence and absence of laboratory light. Measurements were made on samples stored in methanol at 23° C. Initial HPLC sampling was carried out on individual isomers shielded to minimize exposure to laboratory light. These same samples were allowed to remain in the autosampler, shielded from light, for 72 hours before additional HPLC data was collected. Following this, the samples were stored on a lab bench exposed to laboratory light for 52 hours, at which time the final HPLC data time point was collected. Under these conditions, samples that were shielded from light remained stable, showing no change in their respective HPLC chromatograms.

Which “equilibration between double bond isomers” value does the source give for `CC(=C\C=C\C(C)=C\C(O)C(O)CC(C)O)/C=C(C)/C=C/C(=O)OC1CCCC(=O)OC(C(C)C/C(C)=C/C(C)C(O)CC(C)O)C/C=C(\C)CC1C` (centres unmarked) [mycolactone B] here?
Its value is “occur only when the sample was exposed to ambient light”.

Which “equilibration between double bond isomers” value does the source give for mycolactone A here?
The value was “occur only when the sample was exposed to ambient light”.
